Measured values as given in patent US7273848B2, “Apolipoprotein A-I agonists and their use to treat dyslipidemic disorders” (priority 1997, dated 2007).
Non-standard residues stand in square brackets, D forms with d. Residues, ends and D or L forms follow the SMILES beside them. No end group written: not given here. Aib = CC(C)(N)C(=O)O

Target: T1, LCAT (purified from human plasma) (Homo sapiens, UniProt P04180)
T1 construct: from tissue; host or cells: human plasma
T1 sequence (P04180 25-440): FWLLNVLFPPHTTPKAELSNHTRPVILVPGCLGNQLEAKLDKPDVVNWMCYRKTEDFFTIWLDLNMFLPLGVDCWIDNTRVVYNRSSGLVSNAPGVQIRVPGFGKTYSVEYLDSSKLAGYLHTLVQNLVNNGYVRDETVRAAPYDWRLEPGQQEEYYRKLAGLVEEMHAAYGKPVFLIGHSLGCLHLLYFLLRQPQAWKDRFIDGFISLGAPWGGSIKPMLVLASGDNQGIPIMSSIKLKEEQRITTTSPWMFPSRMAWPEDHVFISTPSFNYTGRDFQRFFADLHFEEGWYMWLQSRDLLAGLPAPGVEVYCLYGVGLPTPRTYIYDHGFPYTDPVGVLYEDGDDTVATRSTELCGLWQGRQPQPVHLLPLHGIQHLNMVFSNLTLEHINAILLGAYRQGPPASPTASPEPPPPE
Assay: LCAT activation assay
Format: biochemical
Conditions: LCAT activation as compared with native human ApoA-I (= 100%), equivalent masses
Method in brief: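 Activity was expressed as percentage conversion of radiolabelled cholesterol to cholesteryl ester, normalised to native ApoA-I as 100%. LCAT purified from human plasma was added to peptide-preincubated EPC or POPC/cholesterol (20:1) small unilamellar vesicles at pH 7.4. Specific activity is the peptide concentration reaching the conversion plateau at a fixed timepoint.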

| ACTIVITY (%) LCAT | Molecule |
| --- | --- |
| 0% | CSCC[C@H](NC(=O)C(C)(C)NC(=O)[C@H](CCC(=O)O)NC(=O)[C@H](CC(N)=O)NC(=O)[C@H](CC(C)C)NC(=O)[C@H](CCCCN)NC(=O)[C@H](CCC(=O)O)NC(=O)[C@H](CCCNC(=N)N)NC(=O)[C@H](Cc1ccccc1)NC(=O)[C@H](CCC(=O)O)NC(=O)[C@H](CC(=O)O)NC(=O)[C@H](CC(C)C)NC(=O)[C@@H](NC(=O)[C@@H]1CCCN1)C(C)C)C(=O)N[C@@H](CCC(=O)O)C(=O)N[C@@H](C)C(=O)N[C@@H](CC(C)C)C(=O)N[C@@H](CCCCN)C(=O)N[C@@H](CCC(N)=O)C(=O)N[C@@H](CCCCN)C(=O)N[C@@H](CC(C)C)C(=O)N[C@@H](CCCCN)C(=O)O [compound 114, PVLDEFREKLNEXMEALKQKLK] (H-PVLDEFREKLNE[Aib]MEALKQKLK-OH) |
| 16% | PVLELFLNLLERLGDALQKKLK [compound 172] |
| 0% | CC(C)C[C@H](NC(=O)[C@H](C)NC(=O)[C@H](CCC(=O)O)NC(=O)[C@H](CC(C)C)NC(=O)C(C)(C)NC(=O)[C@H](CCC(=O)O)NC(=O)[C@H](CC(N)=O)NC(=O)[C@H](CC(C)C)NC(=O)[C@H](CCCCN)NC(=O)[C@H](CCC(=O)O)NC(=O)[C@H](CCCNC(=N)N)NC(=O)[C@H](Cc1ccccc1)NC(=O)[C@H](CCC(=O)O)NC(=O)[C@H](CC(=O)O)NC(=O)[C@H](CC(C)C)NC(=O)[C@H](CCC(=O)O)NC(=O)[C@@H]1CCCN1)C(=O)N[C@@H](CCCCN)C(=O)N[C@@H](CCC(N)=O)C(=O)N[C@@H](CCCCN)C(=O)N[C@@H](CC(C)C)C(=O)N[C@@H](CCCCN)C(=O)O [compound 117, PELDEFREKLNEXLEALKQKLK] (H-PELDEFREKLNE[Aib]LEALKQKLK-OH) |
| 76% | PVLELFENLLERLFDALQKKLK [peptide 147] |
| 7% | PVLELFENLLEKLLEALQKKLK [compound 182] |
| 2% | CC(C)C[C@H](NC(=O)[C@H](C)NC(=O)[C@H](CCC(=O)O)NC(=O)[C@H](CC(C)C)NC(=O)C(C)(C)NC(=O)[C@H](Cc1c[nH]c2ccccc12)NC(=O)[C@H](CC(N)=O)NC(=O)[C@H](CC(C)C)NC(=O)[C@H](CC(C)C)NC(=O)[C@H](CCC(=O)O)NC(=O)[C@H](CCCNC(=N)N)NC(=O)[C@H](Cc1ccccc1)NC(=O)[C@H](CC(C)C)NC(=O)[C@H](CC(=O)O)NC(=O)[C@H](CC(C)C)NC(=O)[C@@H](NC(=O)[C@@H]1CCCN1)C(C)C)C(=O)N[C@@H](CCCCN)C(=O)N[C@@H](CCC(N)=O)C(=O)N[C@@H](CCCCN)C(=O)N[C@@H](CC(C)C)C(=O)N[C@@H](CCCCN)C(=O)O [compound 101, PVLDLFRELLNWXLEALKQKLK] (H-PVLDLFRELLNW[Aib]LEALKQKLK-OH) |
| 60% | Ac-PVLDLFREWLEELKQKLK-NH2 [compound 205] |
| 0% | CC(C)C[C@H](NC(=O)[C@H](CCCCN)NC(=O)[C@H](CCC(N)=O)NC(=O)[C@H](CCCCN)NC(=O)[C@H](CC(C)C)NC(=O)C(C)(C)NC(=O)[C@H](CCC(=O)O)NC(=O)[C@H](CC(C)C)NC(=O)[C@H](CCC(=O)O)NC(=O)[C@H](CCC(=O)O)NC(=O)[C@H](CC(N)=O)NC(=O)[C@H](CC(C)C)NC(=O)[C@H](CCCCN)NC(=O)[C@H](CCC(=O)O)NC(=O)[C@H](CCCNC(=N)N)NC(=O)[C@H](Cc1ccccc1)NC(=O)[C@H](CCC(=O)O)NC(=O)[C@H](CC(=O)O)NC(=O)[C@H](CC(C)C)NC(=O)[C@@H](NC(=O)[C@@H]1CCCN1)C(C)C)C(=O)N[C@@H](CCCCN)C(=O)O [compound 120, PVLDEFREKLNEELEXLKQKLK] (H-PVLDEFREKLNEELE[Aib]LKQKLK-OH) |

The remaining lines, values behind:

| Molecule | ACTIVITY (%) LCAT |
| --- | --- |
| CC(C)C[C@H](NC(=O)[C@H](C)NC(=O)[C@H](Cc1c[nH]c2ccccc12)NC(=O)[C@H](CC(C)C)NC(=O)C(C)(C)NC(=O)[C@H](CCC(=O)O)NC(=O)[C@H](CC(N)=O)NC(=O)[C@H](CC(C)C)NC(=O)[C@H](CCCCN)NC(=O)[C@H](CCC(=O)O)NC(=O)[C@H](CCCNC(=N)N)NC(=O)[C@H](Cc1ccccc1)NC(=O)[C@H](CCC(=O)O)NC(=O)[C@H](CC(=O)O)NC(=O)[C@H](CC(C)C)NC(=O)[C@@H](NC(=O)[C@@H]1CCCN1)C(C)C)C(=O)N[C@@H](CCCCN)C(=O)N[C@@H](CCC(N)=O)C(=O)N[C@@H](CCCCN)C(=O)N[C@@H](CC(C)C)C(=O)N[C@@H](CCCCN)C(=O)O [compound 89, PVLDEFREKLNEXLWALKQKLK] (H-PVLDEFREKLNE[Aib]LWALKQKLK-OH) | 6% |
| PVLDEFRELLNELLEALKQKLK [compound 79] | 9% |
| Ac-PVLDFFRELLEELKQKLK-NH2 [compound 204] | 63% |
| PVLDLFREGLNELLEALKQKLK [compound 20] | 57% |
| CC(C)C[C@H](NC(=O)[C@H](C)NC(=O)[C@H](CCC(=O)O)NC(=O)C(C)(C)NC(=O)[C@H](CC(C)C)NC(=O)[C@H](CCC(=O)O)NC(=O)[C@H](CC(N)=O)NC(=O)[C@H](CC(C)C)NC(=O)[C@H](CCCCN)NC(=O)[C@H](CCC(=O)O)NC(=O)[C@H](CCCNC(=N)N)NC(=O)[C@H](Cc1ccccc1)NC(=O)[C@H](CCC(=O)O)NC(=O)[C@H](CC(=O)O)NC(=O)[C@H](CC(C)C)NC(=O)[C@@H](NC(=O)[C@@H]1CCCN1)C(C)C)C(=O)N[C@@H](CCCCN)C(=O)N[C@@H](CCC(N)=O)C(=O)N[C@@H](CCCCN)C(=O)N[C@@H](CC(C)C)C(=O)N[C@@H](CCCCN)C(=O)O [compound 71, PVLDEFREKLNELXEALKQKLK] (H-PVLDEFREKLNEL[Aib]EALKQKLK-OH) | 11% |
| CC(C)C[C@H](NC(=O)[C@H](C)NC(=O)[C@H](CCC(=O)O)NC(=O)[C@H](CC(C)C)NC(=O)C(C)(C)NC(=O)[C@H](CC(C)C)NC(=O)[C@H](CC(N)=O)NC(=O)[C@H](CC(C)C)NC(=O)[C@H](CC(C)C)NC(=O)[C@H](CCC(=O)O)NC(=O)[C@H](CCCNC(=N)N)NC(=O)[C@H](Cc1ccccc1)NC(=O)[C@H](CC(C)C)NC(=O)[C@H](CC(=O)O)NC(=O)[C@H](CC(C)C)NC(=O)[C@@H](NC(=O)[C@@H]1CCCN1)C(C)C)C(=O)N[C@@H](CCCCN)C(=O)N[C@@H](CCC(N)=O)C(=O)N[C@@H](CCCCN)C(=O)N[C@@H](CC(C)C)C(=O)N[C@@H](CCCCN)C(=O)O [compound 95, PVLDLFRELLNLXLEALKQKLK] (H-PVLDLFRELLNL[Aib]LEALKQKLK-OH) | 5% |
| PVLELFENLLERLLELLNKKLK [compound 175] | 13% |
| CC(C)C[C@H](NC(=O)[C@H](C)NC(=O)[C@H](CCC(=O)O)NC(=O)[C@H](CC(C)C)NC(=O)C(C)(C)NC(=O)[C@H](CCC(=O)O)NC(=O)[C@H](CC(N)=O)NC(=O)[C@H](CC(C)C)NC(=O)[C@H](CCCCN)NC(=O)[C@H](Cc1c[nH]c2ccccc12)NC(=O)[C@H](CCCNC(=N)N)NC(=O)[C@H](Cc1ccccc1)NC(=O)[C@H](CCC(=O)O)NC(=O)[C@H](CC(=O)O)NC(=O)[C@H](CC(C)C)NC(=O)[C@@H](NC(=O)[C@@H]1CCCN1)C(C)C)C(=O)N[C@@H](CCCCN)C(=O)N[C@@H](CCC(N)=O)C(=O)N[C@@H](CCCCN)C(=O)N[C@@H](CC(C)C)C(=O)N[C@@H](CCCCN)C(=O)O [compound 61, PVLDEFRWKLNEXLEALKQKLK] (H-PVLDEFRWKLNE[Aib]LEALKQKLK-OH) | 16% |
